The text below walks through data of article PMC3551756, “HIV-1 Fusion Is Blocked through Binding of GB Virus C E2D Peptides to the HIV-1 gp41 Disulfide Loop” (PLoS ONE, 2013).

For test [1], the target named is recombinant HIV-1 gp41MN (truncated gp41 ectodomain) (HIV-1 (strain MN)). The test can be described thus: ELISA; competitive: gp41MN immobilised; E2_(340)-Fc at constant 5 µg/ml with increasing amounts of peptide; bound E2_(340)-Fc detected with anti-human IgG peroxidase antibody.
A further test deals with HIV-1. Conditions: ref [33]; cited from earlier work.
The next test deals with CCR5. Put plainly: CCR5 surface expression, flow cytometry. Type of test: cell-based, human. Conditions: PBMC and TZM-bl cells; E2 peptides 25 µM, RANTES 50 nM; 6 hr; FACS; RTCN vs mock; average of two independent experiments each in triplicate. As for the experimental part:
(§1) PHA/IL-2-stimulated PBMC or TZM-bl cells were incubated with E2 peptides (25 µM), phorbol 12-myristate 13-acetate (PMA; 40 ng/ml), SDF-1α (1 µg/ml) or RANTES (50 nM) for 6 hr. CD4, CXCR4 and CCR5 surface expression was analyzed by using standard FACS staining protocols. Cells were washed with PBS and incubated for 30 min at 4°C with PE-labeled antibodies (CD4 clone SK3, CXCR4 clone 12G5, and CCR5 clone 2D7, BD Biosciences, Germany). Subsequently, washed cells were resuspended in PBS and analyzed with a FACSCalibur™ flow cytometer (BD Biosciences, Germany).
(§2) The non-HIV-1-inhibitory peptide P28 derived from the C-terminal part of E2 (residue 271 to 290), served as a negative control.
(§3) CD4, CXCR4 and CCR5 expression on PBMC (A) and TZM-bl cells (B) after preincubation with E2 peptides were determined by flow cytometry analysis. […] Percentages illustrate the ratio-to-cell-negative (RTCN) values that were calculated from the percentage of positive cells and the fluorescence intensity of peptide-incubated cells compared to mock-incubated cells. Columns show average values ±SD of two independent experiments each performed in triplicate. *: p<0.05; **: p<0.01 (mock- vs. inhibitor-incubated cells).

Test [2] addresses E2_340-Fc / HIV-1 gp41MN interaction (Human immunodeficiency virus type 1 group M subtype B, UniProt P05877). It is filed as binding. Conditions: ELISA, immobilized gp41MN, E2_340-Fc constant (5 µg/ml), increasing peptide; three independent experiments each in duplicate.
Experimental: Flat-bottom, 96-well Microtest ELISA plates (Sarstedt, Germany) were coated overnight at 4°C with recombinant HIV-1 gp120 (0.5 µg/ml), gp41 (0.22 µg/ml) proteins, or with streptavidin (4 µg/ml) in coating buffer (0.1 M NaHCO3, 0.1 M Na2CO3, pH 9.87). Nonspecific binding was blocked (blocking buffer: 1% BSA, 0.1% Tween-20 in phosphate buffer, pH 7.2) for 1 h at room temperature, followed by washing steps (wash buffer: 0.1% Tween in phosphate buffer, pH 7.2). […] All plates were then incubated with recombinant E2_340-Fc or Fc protein in serial dilutions in sample buffer (phosphate buffer, pH 7.2) for 3 hr at room temperature. To perform the competitive ELISAs, the recombinant E2_340-Fc protein was adjusted at 5 µg/ml and the monoclonal gp41 antibodies (246-D, F240, T32, D50, 2F5, 4E10, Chessie 8 [all: NIH AIDS Research and Reference Reagent Program], and 5F3 [Polymun, Austria]) at 100 µM. After washing procedure, the plates were incubated for 1 h with polyclonal rabbit anti-human IgG peroxidase antibody (Dako, Germany) 1∶6000 in sample buffer and washed. Plates were developed with TMB peroxidase substrate solution (KPL, USA), or with OPD/H2O2 solution in the dark. Absorbances (ODs) were read at 450 or 492 nm, respectively, using a multi-channel photometer (ELISA-Reader AxSYM, Abbott Laboratory, USA).
Competitive binding of E2 and gp120 peptides (N35, N35s) with recombinant E2_340-Fc protein to immobilized recombinant gp41MN. Simultaneously to E2_340-Fc incubation peptides of E2 or gp120 were added with increasing amounts.
Test [3] has as its system HIV-1 Env (NL4-3 gp160, X4env) on 293T cells. Put plainly: HIV-1 gp160 (X4env) binding of FITC-labeled E2 peptides, flow cytometry. Conditions: FITC-labeled peptides 1 µM, sCD4 pretreated, 1 h 37°C, X4env- vs vector-transfected 293T cells; three independent experiments each in duplicate. The method, then: 293T cells were transiently transfected with an HIV-1 Env expression vector, coding for the CXCR4-tropic NL4-3 gp160 precursor (X4env) for surface expression of gp120-gp41 Env trimers or empty plasmid as control. After 2 days of cultivation, cells were incubated with 1 µg sCD4 and 1 µM FITC-conjugated E2 peptides for 1 h at 37°C respectively. Subsequently, cells were washed, resuspended in PBS, and analyzed by flow cytometry using a BD™ LSR II flow cytometer (Becton Dickinson Biosciences, Germany). Flow cytometer data were collected with BD FACSDiva™ and analyzed with FCS Express V3. In parallel, gp160 expression was determined by staining with HIV-1 gp120 mAbs (2G12 and 17b) and an anti-human IgG-FITC pAb (Dako, Germany).
Previously, we have shown that the target of the HIV-1-inhibitory E2 peptides is most likely located on the HIV-1 particle, rather than on the cell. The surface of the HIV-1 particle consists of a lipid bilayer with incorporated host cell proteins and a limited number of functional envelope (Env) trimers (on average 14±7). Therefore, we tested whether the HIV-1-inhibitory E2 peptides interact with trimeric HIV-1 Env proteins expressed on the surface of transfected cells. For this purpose, 293T cells were transiently transfected with an HIV-1 Env expression vector, coding for the gp160 precursor of the CXCR4-tropic NL4-3 envelope (X4env). Binding of FITC-labeled E2 peptides was monitored by flow cytometry.
Figure 4 Recombinant E2_340-Fc protein and E2-derived peptides bind HIV-1 gp41. (A) 293T cells expressing NL4-3 envelope (X4env) or empty plasmid as control were incubated with sCD4 and FITC-conjugated E2 peptides, respectively. Peptide binding was analyzed by flow cytometry. Percentages illustrate the increase of cell binding to X4env-transfected cells. The increase is normalized to the background binding of E2 peptides to mock-transfected cells by calculating the RTCN value. […] (C) E2 peptides with increasing amounts were added to recombinant E2_340-Fc protein (at constant concentration) and then transferred to immobilized recombinant gp41MN.
In general terms: In flow cytometry, cells or beads pass a laser one at a time.

The next test relates to CXCR4. The test can be described thus: CXCR4 surface expression, flow cytometry. It is filed as cell-based, human. Conditions: PBMC and TZM-bl cells; E2 peptides 25 µM, SDF-1α 1 µg/ml; 6 hr; FACS; RTCN vs mock; average of two independent experiments each in triplicate. The method, then:
as §1, §2, §3

The subject of another test is CD4. Put plainly: CD4 surface expression, flow cytometry. It is filed as cell-based, human. Conditions: PBMC and TZM-bl cells; E2 peptides 25 µM, PMA 40 ng/ml; 6 hr; FACS; RTCN vs mock; average of two independent experiments each in triplicate. The method, then: as §1, §2, §3
The subject of a further test is gp120/CCR5 interaction. Type of test: binding, HIV-1. Conditions: 293T cells expressing CCR5; sCD4 added; peptides 0.2 mM, E2_340-Fc 0.6 µM; 1 h 37°C; normalized to Hsp90.
Test [4] relates to HIV-1 NL4-3 / TZM-bl cells. The test can be described thus: HIV-1 virion-based (BlaM-Vpr) virus-cell fusion assay. Conditions: standard (pre-CD4 binding) and TAS (post-CD4 binding, 23°C 1 h then 37°C 2 hr); E2 peptides 20 µM, AMD-3100 10 µM, 2F5 0.5 µg/ml, b12 and B4 0.3 µg/ml; five independent experiments each in triplicate.
Experimental: HIV-1 virions containing the BlaM-Vpr chimera were produced as previously described [33]. Briefly, 293T cells were co-transfected with pNL4-3 proviral DNA, pCMV-BlaM-Vpr, and pAdVAntage vectors. After 2 days of cultivation, the virus-containing supernatant was centrifuged for 10 min at 300×g to remove cellular debris. The HIV-1 virion-containing supernatant was overlaid onto a 20% sucrose cushion and ultracentrifuged at 35000×g at 4°C for 90 min. The resulting pellet was resuspended in medium and aliquots were frozen at −80°C until usage.
The virion-based fusion assay was performed essentially as described elsewhere [41]. Briefly, 5×10^4 TZM-bl cells were infected with sucrose-purified HIV-1 NL4-3 virions containing BlaM-Vpr (5 ng p24-Gag per approach). Under temperature-arrested state (TAS) conditions, binding of the HI virions to target cells was allowed at low temperature via spinning inoculation, for which virions were added to cells and centrifuged at 2095×g, 4°C for 30 min. […] BlaM activity was quantified using a fluorescence plate reader. The extent of virus-cell fusion was determined from the ratio of blue (460 nm) and green (510 nm) emission upon exciting the cells at 405 nm.
To find out whether early or late steps of HIV-1 entry are affected by the E2 peptides, the E2 peptide activity was determined before and after gp120/CD4 engagement using the Vpr-β-lactamase (Vpr-BlaM) enzyme-based virus-cell fusion assay under standard (pre-CD4 binding) and temperature-arrested state (TAS; post-CD4 binding) conditions, respectively.
The HIV-inhibitory activity of known HIV-1 entry inhibitors or respective E2 peptides was determined using a virus-cell fusion assay under standard (respective inhibitors were added simultaneously to HIV NL4-3BlaM-Vpr inoculum: pre-CD4 binding) or under TAS (temperature-arrested state) conditions (respective inhibitors were added at low temperature of 23°C for 1 h after spin-inoculation [4°C] and removal of unbound HIV-1 particles: post-CD4 binding). […] Percentages were calculated in relation to mock-treated cells. […]

Experimental for gp120/CCR5 interaction: Briefly, 293T cells were transiently transfected with either pCD4 or pCCR5 expression plasmids. Verification of expression was performed 2 days after transfection via flow cytometry. After 2 days of cultivation, the cells were resuspended in binding buffer (50 mM HEPES, 5 mM MgCl2, 1 mM CaCl2, 5% BSA, 0.1 mM NaN3, pH 7.5). […] After incubation for 1 h at 37°C, cells were washed with cold PBS and lysed in Triton X-100 and Tween-20 containing buffer. Lysates were separated by a 5% SDS-PAGE and verified with monoclonal gp120 antibody F425 B4a1 (NIH AIDS Research and Reference Reagent Program) or with sheep α-HIV-1-gp120 (Aalto Bio Reagents Ltd.) in Western Blot analyses. HIV-1 gp120 (5 ng) was used as a standard.
In a related approach, the effect of E2 peptides or intact E2 protein on the interaction between gp120 and the coreceptors CCR5 and CXCR4 expressed on cells was tested by immunoblotting. To ensure efficient binding of gp120 to the coreceptors, soluble CD4 (sCD4) was added simultaneously.
Soluble HIV-1 gp120 was added to the CD4-, CCR5-, or CXCR4-expressing cells and binding was investigated by separating the cell lysates on SDS-PAGE and visualized by performing Western Blot analyses.

As for “N35s, C54S variant of the HIV-1 gp120 N-terminus peptide N35 (from UniProt P04578 31-65)”, the IC50 in test [1] was 4.6 µM.

With Ac-TEVSEALGGAGLTGGFYEPL [P28], the “HIV-inhibitory activity (earlier work)” value in the test with HIV-1 is listed as “non-HIV-1-inhibitory”. In addition, the CCR5 surface presentation result with CCR5 was “no relevant effect on HIV-1 receptor presentation”. Also, in [2], the “competition with E2_340-Fc for gp41 binding” value was “no effect”. Besides, the “binding to HIV-1 Env-expressing cells” value in test [3] is listed as “the increase of binding was not observed”. Besides, the CXCR4 surface presentation result in the test on CXCR4 is listed as “no relevant effect on HIV-1 receptor presentation”. In addition, the CD4 surface presentation entry in the test with CD4 is “no relevant effect on HIV-1 receptor presentation”.

As for “N35, HIV-1 gp120 N-terminus peptide (gp120 residue 31 to 65) (from UniProt P04578 31-65)”, the IC50 in test [1] amounted to 0.7 µM.

As for Maraviroc, the “interference with gp120 binding to CCR5” value in the test on gp120/CCR5 interaction is on record as “clear reduction in the gp120/CCR5”.

In the case of “GBV-C E2 peptide P6-2 (amino acids 45 to 64)”, the IC50 in test [1] came out at 7 µM.

For SDF-1α [reference compound], the CXCR4 surface presentation result in the test on CXCR4 was “down-regulation of the respective coreceptors”.

On to `Cc1ccc(-c2ccc3c(c2)C=C(C(=O)Nc2ccc(C[N+](C)(C)C4CCOCC4)cc2)CCC3)cc1.[Cl-]` [TAK-779], for which the “interference with gp120 binding to CCR5” value in the test on gp120/CCR5 interaction is listed as “clear reduction in the gp120/CCR5”.

`c1cc(CN2CCCNCCNCCCNCC2)ccc1CN1CCCNCCNCCCNCC1` [AMD-3100, reference compound]: the “inhibition of virus-cell fusion, standard versus TAS conditions” value in [4] is “act after CD4 engagement”.

Consider `CCCCCCCCCCCCCC(=O)O[C@@H]1[C@@H](C)[C@@]2(O)[C@@H](C=C(CO)C[C@]3(O)C(=O)C(C)=C[C@@H]23)[C@@H]2C(C)(C)[C@]12OC(C)=O` [PMA, phorbol 12-myristate 13-acetate, reference compound], for which the CD4 surface presentation entry with CD4 is “down-regulation of CD4”.

B1: RANTES: CCR5-ligand (protein, UniProt P13501 24-91, looked up)
C-C motif chemokine 5: SPYSSDTTPCCFAYIARPLPRAHIKEYFYTSGKCSNPAVVFVTRKNRQVCANPEKKWVREYINSLEMS
For B1, in the test with CCR5, the CCR5 surface presentation entry is listed as “down-regulation of the respective coreceptors”.

Usually IC50 stands for the concentration that inhibits the measured activity by half.
